In one assay the target is T1, human GST-DYRK1A (Homo sapiens, UniProt Q13627).
T1 construct: purified human GST-DYRK1A (full length, Thermo Scientifics) enzyme; purchased Thermo Scientifics
Nature of the assay: GST-DYRK1A enzyme inhibition, ADP-Glo kinase assay. To be noted: ATP 10 μM, GST-DYRK1A full length, read-out: DYRK1 IC50. In kind it is biochemical. The essentials:
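Full-length human GST-DYRK1A (10 ng) with 10 μM ATP and specific substrate in 40 mM Tris-HCl pH 7.4, 20 mM MgCl2, 0.5 mg/mL BSA, 50 μM DTT, 1 h at 25 °C. ADP formation read by ADP-Glo luminescence relative to solvent control; IC50 from three data sets.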

The next assay has as its system MDA-MB-468 cell line. Nature of the assay: Inhibition of proliferation of MDA-MB-468 cancer cells (Cell Titer-Glo). In kind it is cell-based. To be noted: Homo sapiens, MDA-MB-468, 72 hours. The procedure, abridged:
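Cells were grown in DMEM or RPMI, seeded at 2,000 cells/well and exposed to 11 threefold dilutions of compound (final 10 to 0.000169 μM) for 72 hours. Viability was read by Cell Titer-Glo luminescence after 10 min at room temperature, and GI50 was calculated from the luminescence data.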
In general terms: Cellular ATP, detected with luciferase, serves as a proxy for viable cell number.

Another assay deals with T2, TTK (Homo sapiens, UniProt P33981).
T2 sequence (P33981 1-857): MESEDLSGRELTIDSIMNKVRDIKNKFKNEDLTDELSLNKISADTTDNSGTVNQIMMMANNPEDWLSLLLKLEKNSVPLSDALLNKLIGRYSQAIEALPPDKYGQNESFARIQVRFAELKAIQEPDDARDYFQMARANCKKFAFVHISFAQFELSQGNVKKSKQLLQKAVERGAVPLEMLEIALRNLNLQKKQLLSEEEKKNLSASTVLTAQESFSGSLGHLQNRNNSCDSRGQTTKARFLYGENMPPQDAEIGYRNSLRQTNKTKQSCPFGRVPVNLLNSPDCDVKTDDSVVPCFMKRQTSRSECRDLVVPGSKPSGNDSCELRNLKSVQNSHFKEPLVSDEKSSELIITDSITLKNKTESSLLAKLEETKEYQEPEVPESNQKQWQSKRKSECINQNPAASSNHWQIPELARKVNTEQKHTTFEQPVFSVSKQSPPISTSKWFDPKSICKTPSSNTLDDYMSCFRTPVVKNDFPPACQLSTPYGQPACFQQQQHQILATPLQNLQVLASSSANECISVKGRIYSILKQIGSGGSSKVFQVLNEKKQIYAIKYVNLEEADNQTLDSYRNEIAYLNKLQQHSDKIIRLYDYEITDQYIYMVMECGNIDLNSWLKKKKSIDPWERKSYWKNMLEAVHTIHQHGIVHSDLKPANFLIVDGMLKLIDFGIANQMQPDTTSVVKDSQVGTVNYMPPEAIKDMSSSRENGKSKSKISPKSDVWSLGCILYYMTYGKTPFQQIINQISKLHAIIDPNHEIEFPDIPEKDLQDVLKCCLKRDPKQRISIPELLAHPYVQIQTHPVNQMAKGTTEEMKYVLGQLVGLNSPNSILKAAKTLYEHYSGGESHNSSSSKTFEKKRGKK
Nature of the assay: TTK enzyme inhibition, ADP-Glo kinase assay. The format is biochemical. Also noted: purchased SignalChem T20-10G. To be noted: ATP 5 μM. The procedure, abridged: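 Purified human TTK (7.5 ng) was reacted with 5 μM ATP and 0.2 μg MBP substrate for 4 h at 25 °C in 40 mM Tris-HCl pH 7.4, 20 mM MgCl2, 0.1 mg/mL BSA, 50 μM DTT. ADP formation was read by ADP-Glo luminescence, and IC50 was taken relative to solvent control.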

Each structure is given as a SMILES string.

In the case of `N#Cc1c[nH]c2nc(Nc3ccc(C(=O)N4CCOCC4)c4c3OCCO4)nc(NCC3CCCC3)c12` [Example 133, 4-((cyclopentylmethyl)amino)-2-((8-(morpholine-4-carbonyl)-2,3-dihydrobenzo[b][1,4]dioxin-5-yl)amino)-7H-pyrrolo[2,3-d]pyrimidine-5-carbonitrile], the IC50 was 301 to 1000 nM at human GST-DYRK1A and less than 100 nM on TTK. The molecule also registered a GI50 with MDA-MB-468 cell line of 51 to 100 nM.
Regarding `CNc1nc(Nc2ccc(C(=O)N3CCC(N4CCOCC4)CC3)c3c2OCC3)nc2[nH]cc(C(F)(F)F)c12` [Example 217, (7-((4-(methylamino)-5-(trifluoromethyl)-7H-pyrrolo[2,3-d]pyrimidin-2-yl)amino)-2,3-dihydrobenzofuran-4-yl)(4-morpholinopiperidin-1-yl)methanone], the IC50 at human GST-DYRK1A and against TTK was less than 100 nM throughout. Also, the GI50 in the assay with MDA-MB-468 cell line was in the range of 301 to 1000 nM.
For `CNc1nc(Nc2ccc(S(=O)(=O)N3CCC(N4CCOCC4)CC3)c3c2OCCO3)nc2[nH]cc(C(F)(F)F)c12` [Example 219, N^4-methyl-N^2-(8-((4-morpholinopiperidin-1-yl)sulfonyl)-2,3-dihydrobenzo[b][1,4]dioxin-5-yl)-5-(trifluoromethyl)-7H-pyrrolo[2,3-d]pyrimidine-2,4-diamine], the IC50 on human GST-DYRK1A and at TTK was less than 100 nM throughout. In addition, in the assay on MDA-MB-468 cell line, the GI50 lay within 301 to 1000 nM.
Consider `N#Cc1c[nH]c2nc(Nc3ccc(C(=O)N4CCC(N5CCOCC5)CC4)c4c3OCCO4)nc(C3CC3)c12` [Example 221, 4-cyclopropyl-2-((8-(4-morpholinopiperidine-1-carbonyl)-2,3-dihydrobenzo[b][1,4]dioxin-5-yl)amino)-7H-pyrrolo[2,3-d]pyrimidine-5-carbonitrile], for which the IC50 on human GST-DYRK1A and against TTK was less than 100 nM throughout. For the same molecule, the GI50 in the assay on MDA-MB-468 cell line lay within 301 to 1000 nM.
Regarding `CNc1nc(Nc2cc(F)c(S(=O)(=O)N3CCC(N4CCOCC4)CC3)cc2OC)nc2[nH]cc(C(F)(F)F)c12` [Example 231, N^2-(5-fluoro-2-methoxy-4-((4-morpholinopiperidin-1-yl)sulfonyl)phenyl)-N^4-methyl-5-(trifluoromethyl)-7H-pyrrolo[2,3-d]pyrimidine-2,4-diamine], the concentration for half-maximal inhibition (IC50) at human GST-DYRK1A and against TTK was 101 to 300 nM throughout. This molecule showed a concentration for 50% growth inhibition (GI50) in the assay with MDA-MB-468 cell line of 301 to 1000 nM.
Consider `CCNc1nc(Nc2cc(F)c(S(=O)(=O)N3CCC(N4CCOCC4)CC3)cc2OC)nc2[nH]cc(C(F)(F)F)c12` [Example 232, N^4-ethyl-N^2-(5-fluoro-2-methoxy-4-((4-morpholinopiperidin-1-yl)sulfonyl)phenyl)-5-(trifluoromethyl)-7H-pyrrolo[2,3-d]pyrimidine-2,4-diamine], for which the IC50 at human GST-DYRK1A and on TTK was 301 to 1000 nM each time. The same molecule registered a GI50 in the assay with MDA-MB-468 cell line of 301 to 1000 nM.
For the molecule `CCN1CCP(=O)(c2ccc(Nc3nc(C4CC4)c4c(C#N)c[nH]c4n3)c(OC)c2)CC1` [Example 261], the GI50 in the assay with MDA-MB-468 cell line was in the range of 301 to 1000 nM. The molecule further registered a concentration for half-maximal inhibition (IC50) on TTK of less than 100 nM.
As for `COCCNc1nc(Nc2ccc(C(=O)N3CCC(N4CCOCC4)CC3)c3c2OCC3)nc2[nH]cc(C#N)c12` [Example 359, 4-((2-methoxy-ethyl)ami-no)-2-((4-(4-morpholino-piperidine-1-carbonyl)-2,3-dihydro-benzofuran-7-yl)amino)-7H-pyrrolo[2,3-d]pyrimidine-5-carbonitrile], the IC50 on human GST-DYRK1A and against TTK was less than 100 nM in each case. For the same molecule, in the assay with MDA-MB-468 cell line, the GI50 lay in the range of 301 to 1000 nM.
For the molecule `C=CCNc1nc(Nc2ccc(S(=O)(=O)N3CCC(N4CCOCC4)CC3)cc2OC)nc2[nH]cc(C#N)c12` [Example 361, 4-(allylamino)-2-((2-methoxy-4-((4-morpholino-piperidin-1-yl)sulfonyl)phenyl)amino)-7H-pyrrolo[2,3-d]pyrimidine-5-carbonitrile], the IC50 on human GST-DYRK1A was 301 to 1000 nM; on TTK, less than 100 nM. The GI50 in the assay on MDA-MB-468 cell line was less than 50 nM.
For the molecule `CNc1nc(Nc2ccc(C(=O)N3CCN(C4COC4)CC3)c3c2OCCO3)nc2[nH]cc(C(F)(F)F)c12` [Example 397, (8-((4-(methylamino)-5-(trifluoromethyl)-7H-pyrrolo[2,3-d]pyrimidin-2-yl)amino)-2,3-dihydrobenzo[b] [1,4]dioxin-5-yl) (4-(oxetan-3-yl)piperazin-1-yl)methanone], the values for the IC50 at human GST-DYRK1A and against TTK were 101 to 300 nM and less than 100 nM, respectively. In the assay with MDA-MB-468 cell line, this molecule displayed a GI50 of 301 to 1000 nM.
`COCCNc1nc(Nc2ccc(C(=O)N3CCN(C4COC4)CC3)c3c2OCCO3)nc2[nH]cc(C(F)(F)F)c12` [Example 403, (8-((4-((2-methoxyethyl)-amino)-5-(trifluoromethyl)-7H-pyrrolo[2,3-d]pyrimidin-2-yl)amino)-2,3-dihydrobenzo[b] [1,4]dioxin-5-yl) (4-(oxetan-3-yl)piperazin-1-yl)methanone]: the IC50 on human GST-DYRK1A and at TTK was less than 100 nM each time. In the assay on MDA-MB-468 cell line, this molecule showed a 50% growth inhibitory concentration (GI50) of 301 to 1000 nM.
Regarding `O=C(c1ccc(Nc2nc(NC3CCCC3)c3c(C(F)(F)F)c[nH]c3n2)c2c1OCCO2)N1CCN(C2COC2)CC1` [Example 414, (8-((4-(cyclopentyl-amino)-5-(trifluoromethyl)-7H-pyrrolo[2,3-d]pyrimidin-2-yl)amino)-2,3-dihydrobenzo[b] [1,4]dioxin-5-yl) (4-(oxetan-3-yl)piperazin-1-yl)methanone], the IC50 on human GST-DYRK1A and against TTK was less than 100 nM each time. The GI50 with MDA-MB-468 cell line lay in the range of 101 to 300 nM.
Turning to `O=C(c1ccc(Nc2nc(NC3CCCCC3)c3c(C(F)(F)F)c[nH]c3n2)c2c1OCCO2)N1CCN(C2COC2)CC1` [Example 415, (8-((4-(cyclo-hexylamino)-5-(trifluoromethyl)-7H-pyrrolo[2,3-d]pyrimidin-2-yl)amino)-2,3-dihydrobenzo[b] [1,4]dioxin-5-yl) (4-(oxetan-3-yl)piperazin-1-yl)methanone], the IC50 is 301 to 1000 nM at human GST-DYRK1A and less than 100 nM at TTK. In the assay on MDA-MB-468 cell line, the GI50 lay within 101 to 300 nM.
The like results for `CCNc1nc(Nc2ccc(S(=O)(=O)N3CCC(N4CCOCC4)CC3)c3c2OCCO3)nc2[nH]cc(C(F)(F)F)c12` [Example 430, N^4-ethyl-N^2-(8-((4-morpholino-piperidin-1-yl)sulfonyl)-2,3-dihydro-benzo[b][1,4]dioxin-5-yl)-5-(trifluoromethyl)-7H-pyrrolo[2,3-d]pyrimidine-2,4-diamine] were, in that order, 301 to 1000 nM, less than 100 nM and 301 to 1000 nM.
For the molecule `O=C(c1ccc(Nc2nc(NC3CC3)c3c(C(F)(F)F)c[nH]c3n2)c2c1CCO2)N1CCC(N2CCOCC2)CC1` [Example 434, (7-((4-(cyclopropyl-amino)5-(trifluoromethyl)-7H-pyrrolo[2,3-d]pyrimidin-2-yl)amino)-2,3-dihydrobenzo-furan-4-yl)(4-morpho-linopiperidin-1-yl)methanone], the half-maximal inhibitory concentration (IC50) on human GST-DYRK1A and on TTK was less than 100 nM in each case. The molecule also registered a GI50 with MDA-MB-468 cell line of 301 to 1000 nM.
As for `CCNc1nc(Nc2ccc(C(=O)N3CCC(N4CCOCC4)CC3)c3c2OCC3)nc2[nH]cc(C(F)(F)F)c12` [Example 438, (7-((4-(ethylamino)-5-(trifluoromethyl)-7H-pyrrolo[2,3-d]pyrimidin-2-yl)amino)-2,3-dihydrobenzo-furan-4-yl)(4-morpho-linopiperidin-1-yl)methanone], the concentration for half-maximal inhibition (IC50) at human GST-DYRK1A and against TTK was less than 100 nM each time. Besides, the GI50 in the assay on MDA-MB-468 cell line fell in the range of 301 to 1000 nM.
As to `COc1cc(S(=O)(=O)N2CCC(N3C[C@H]4C[C@@H]3CO4)CC2)ccc1Nc1nc(C2CC2)c2c(C(F)(F)F)c[nH]c2n1` [Example 473, N-(4-((4-((1R,4R)-2-oxa-5-azabicyclo[2.2.1]heptan-5-yl)piperidin-1-yl)sulfonyl)-2-methoxyphenyl)-4-cyclopropyl-5-(trifluoromethyl)-7H-pyrrolo[2,3-d]pyrimidin-2-amine], the GI50 with MDA-MB-468 cell line fell in the range of 301 to 1000 nM. Moreover, on TTK, the IC50 is less than 100 nM.

In general, IC50 refers to the concentration that inhibits the measured activity by half. As a reminder, the GI50 is the concentration that inhibits growth by half. A higher GI50 goes with lower sensitivity of the cells.
